# Experimental data as given in ChEMBL document CHEMBL1144250, “3D QSAR studies on GSK-3 inhibition by aloisines” (Bioorg Med Chem Lett, 2005).
# Target: Glycogen synthase kinase-3 (Homo sapiens, UniProt P49840+P49841)
# Assay: Inhibitory concentration against Glycogen synthase kinase-3
# Type: protein assay
row,Log IC50,SMILES
1,-5.1,Clc1ccc(-c2[nH]c3nccnc3c2CC2CCCCC2)cc1
2,-4.22,COc1cc(OC)cc(-c2cc3[nH]ccnc-3n2)c1
3,-4.92,CN(C)c1ccc(-c2cc3[nH]ccnc-3n2)cc1
4,-6.12,CC(C)c1c(-c2ccc(Cl)cc2)[nH]c2nccnc12
5,-5.6,COc1ccc(-c2[nH]c3nccnc3c2CCCCl)cc1
6,-6.3,COc1ccc(-c2[nH]c3nccnc3c2C(C)C)cc1
7,-4.7,COc1cc(-c2cc3[nH]ccnc-3n2)cc(OC)c1OC
8,-5.22,Brc1ccc(-c2cc3[nH]ccnc-3n2)cc1
9,-6.22,C=CCc1c(-c2ccc(OC)cc2)[nH]c2nccnc12
10,-5.59,Cc1ccc(-c2cc3[nH]ccnc-3n2)cc1
11,-6.04,CCCCc1c(-c2ccc(OC)cc2)[nH]c2nccnc12 [ALOISINE]
12,-5.32,N#Cc1ccc(-c2cc3[nH]ccnc-3n2)cc1
13,-5.74,CCCc1c(-c2ccc(O)cc2)[nH]c2nccnc12
14,-5.72,Fc1ccc(-c2cc3[nH]ccnc-3n2)cc1
15,-5.5,COc1cccc(-c2cc3[nH]ccnc-3n2)c1
16,-5.52,Oc1ccc(-c2[nH]c3nccnc3c2CC2CC2)cc1
17,-6.28,Cc1c(-c2ccc(O)cc2)[nH]c2nccnc12

row,Log IC50,SMILES
1,-5.96,COc1ccc(-c2[nH]c3nccnc3c2CC2CC2)cc1
2,-5.92,Oc1ccc(-c2cc3[nH]ccnc-3n2)cc1
3,-5.7,COc1ccc(-c2[nH]c3nccnc3c2C)cc1OC
4,-5.17,COc1ccc(-c2[nH]c3nccnc3c2CC2CCCCC2)cc1
5,-6,c1ccc(Cc2c(-c3ccccc3)[nH]c3nccnc23)cc1
6,-5.64,c1ccc(-c2cc3[nH]ccnc-3n2)cc1
7,-5.14,FC(F)(F)c1ccc(-c2cc3[nH]ccnc-3n2)cc1
8,-5.77,Cc1c(-c2ccc(Cl)cc2)[nH]c2nccnc12
9,-5.48,COc1ccccc1-c1cc2[nH]ccnc-2n1
10,-5.23,CCCCc1c(-c2ccc(Cl)cc2)[nH]c2nccnc12
11,-6.3,Cc1c(-c2ccc(OS(=O)(=O)N(C)C)cc2)[nH]c2nccnc12
12,-5,CCCCCCCc1c(-c2ccc(OC)cc2)[nH]c2nccnc12
13,-5.19,Oc1ccccc1-c1cc2[nH]ccnc-2n1
14,-6.4,CCCc1c(-c2ccc(OC)cc2)[nH]c2nccnc12
15,-5.96,COc1ccc(-c2cc3[nH]ccnc-3n2)cc1
16,-6.34,COc1ccc(-c2[nH]c3nccnc3c2C)cc1
17,-5.17,Clc1ccc(-c2[nH]c3nccnc3c2Cc2ccccc2)cc1
